20 molecules from US10189816B2, “Substituted pyridines as inhibitors of human immunodeficiency virus replication” (priority 2015, dated 2019) can be followed below.

SMILES strings stand for the structures. Where two headings read alike, the source gives them in different places. Bounds are passed on as bounds.

For this test, the system named is NL-RLuc virus. Briefly: Inhibition of HIV replication (NL-RLuc reporter virus in MT-2 cells, luciferase readout). It counts as cell-based. Particulars: Human immunodeficiency virus 1, MT2, 120 h. An excerpt: Inhibition of HIV replication: A recombinant NL-RLuc proviral clone was constructed in which a section of the nef gene from NL4-3 was replaced with the Renilla Luciferase gene. This virus is fully infectious and can undergo multiple cycles of replication in cell culture. In addition, the luciferous reporter provides a simple and easy method for quantitating the extent of virus growth and consequently, the antiviral activity of test compounds. The plasmid pNLRLuc contains the proviral NL-Rluc DNA cloned into pUC18 at the PvuII site. The NL-RLuc virus was prepared by transfection of 293T cells with the plasmid pNLRLuc. Transfections were performed using the LipofectAMINE PLUS kit from Invitrogen (Carlsbad, Calif.) according to the manufacturer and the virus generated was titered in MT-2 cells. For susceptibility analyses, the titrated virus was used to infect MT-2 cells in the presence of compound, and after 5 days of incubation, cells were processed and quantitated for virus growth by the amount of expressed luciferase. Assay media was RPMI 1640 supplemented with 10% heat inactivated fetal bovine serum (FBS), 100 units/ml penicillin G/100 units/ml streptomycin, 10 mM HEPES buffer pH 7.55 and 2 mM L-glutamine. The results from at least 2 experiments were used to calculate the EC50 values. Luciferase was quantitated using the Dual Luciferase kit from Promega (Madison, Wis.). Susceptibility of viruses to compounds was determined by incubation in the presence of serial dilutions of the compound. The 50% effective concentration (EC50) was calculated by using the exponential form of the median effect equation where (Fa)=1/[1+(ED50/drug conc.)^m] (Johnson V A, Byington R T. Infectivity Assay. In Techniques in HIV Research. ed. Aldovini A, Walker B D. 71-76. New York: Stockton Press.1990). Activity equal to A refers to a compound having an EC50≤100 nM, while B and C denote compounds having an EC50 between 100 nM and 1 uM (B) or >1 uM (C).

Take `Cc1nc(C)c([C@H](OC(C)(C)C)C(=O)O)c(N2CCC(C)(C)CC2)c1-c1ccc2c(c1)CCN(Cc1ccc(Cl)c(F)c1)C2` [Compound 22, (S)-2-(tert-butoxy)-2-(5-(2-(4-chloro-3-fluorobenzyl)-1,2,3,4-tetrahydroisoquinolin-6-yl)-4-(4,4-dimethylpiperidin-1-yl)-2,6-dimethylpyridin-3-yl)acetic acid]: the EC50 (read-out: Activity) was below 0.1 µM.
Turning to `Cc1cccc(Cl)c1CN1CCc2cc(-c3c(C)nc(C)c([C@H](OC(C)(C)C)C(=O)O)c3N3CCC(C)(C)CC3)ccc2C1` [Compound 23, (S)-2-(tert-butoxy)-2-(5-(2-(2-chloro-6-methylbenzyl)-1,2,3,4-tetrahydroisoquinolin-6-yl)-4-(4,4-dimethylpiperidin-1-yl)-2,6-dimethylpyridin-3-yl)acetic acid], the EC50 was below 0.1 µM (read-out: Activity) and 0.003 µM (read-out: EC50 μM).
`Cc1nc(C)c([C@H](OC(C)(C)C)C(=O)O)c(N2CCC(C)(C)CC2)c1-c1ccc2c(c1)CCN(Cc1ccc(F)c(Cl)c1)C2` [Compound 24, (S)-2-(tert-butoxy)-2-(5-(2-(3-chloro-4-fluorobenzyl)-1,2,3,4-tetrahydroisoquinolin-6-yl)-4-(4,4-dimethylpiperidin-1-yl)-2,6-dimethylpyridin-3-yl)acetic acid]: where the note is “read-out: Activity”, the EC50 was below 0.1 µM.
On the same count and under the same terms, the value for `Cc1cc(F)ccc1CN1CCc2cc(-c3c(C)nc(C)c([C@H](OC(C)(C)C)C(=O)O)c3N3CCC(C)(C)CC3)ccc2C1` [Compound 25, (S)-2-(tert-butoxy)-2-(4-(4,4-dimethylpiperidin-1-yl)-5-(2-(4-fluoro-2-methylbenzyl)-1,2,3,4-tetrahydroisoquinolin-6-yl)-2,6-dimethylpyridin-3-yl)acetic acid] was below 0.1 µM.
As for `Cc1nc(C)c([C@H](OC(C)(C)C)C(=O)O)c(N2CCC(C)(C)CC2)c1-c1ccc2c(c1)CCN(Cc1cc(Cl)cc(Cl)c1)C2` [Compound 26, (S)-2-(tert-butoxy)-2-(5-(2-(3,5-dichlorobenzyl)-1,2,3,4-tetrahydroisoquinolin-6-yl)-4-(4,4-dimethylpiperidin-1-yl)-2,6-dimethylpyridin-3-yl)acetic acid], the EC50 (read-out: Activity) is below 0.1 µM.
Still for that read-out and setting: with `Cc1nc(C)c([C@H](OC(C)(C)C)C(=O)O)c(N2CCC(C)(C)CC2)c1-c1ccc2c(c1)CCN(Cc1ccc(C(C)(C)C)cc1)C2` [Compound 27, (S)-2-(tert-butoxy)-2-(5-(2-(4-(tert-butyl)benzyl)-1,2,3,4-tetrahydroisoquinolin-6-yl)-4-(4,4-dimethylpiperidin-1-yl)-2,6-dimethylpyridin-3-yl)acetic acid] the figure was below 0.1 µM.
On the same count and under the same terms, with `Cc1nc(C)c([C@H](OC(C)(C)C)C(=O)O)c(N2CCC(C)(C)CC2)c1-c1ccc2c(c1)CCN(Cc1cccc(Cl)c1)C2` [Compound 28, (S)-2-(tert-butoxy)-2-(5-(2-(3-chlorobenzyl)-1,2,3,4-tetrahydroisoquinolin-6-yl)-4-(4,4-dimethylpiperidin-1-yl)-2,6-dimethylpyridin-3-yl)acetic acid] the figure was below 0.1 µM.
Regarding `Cc1ccc(C)c(CN2CCc3cc(-c4c(C)nc(C)c([C@H](OC(C)(C)C)C(=O)O)c4N4CCC(C)(C)CC4)ccc3C2)c1` [Compound 29, (S)-2-(tert-butoxy)-2-(5-(2-(2,5-dimethylbenzyl)-1,2,3,4-tetrahydroisoquinolin-6-yl)-4-(4,4-dimethylpiperidin-1-yl)-2,6-dimethylpyridin-3-yl)acetic acid], the EC50 (read-out: Activity) is below 0.1 µM.
With `Cc1nc(C)c([C@H](OC(C)(C)C)C(=O)O)c(N2CCC(C)(C)CC2)c1-c1ccc2c(c1)CCN(Cc1c(F)cccc1C(F)(F)F)C2` [Compound 30, (S)-2-(tert-butoxy)-2-(4-(4,4-dimethylpiperidin-1-yl)-5-(2-(2-fluoro-6-(trifluoromethyl)benzyl)-1,2,3,4-tetrahydroisoquinolin-6-yl)-2,6-dimethylpyridin-3-yl)acetic acid], the EC50 (read-out: Activity) was below 0.1 µM.
For `Cc1nc(C)c([C@H](OC(C)(C)C)C(=O)O)c(N2CCC(C)(C)CC2)c1-c1ccc2c(c1)CCN(Cc1cc(F)cc(F)c1)C2` [Compound 31, (S)-2-(tert-butoxy)-2-(5-(2-(3,5-difluorobenzyl)-1,2,3,4-tetrahydroisoquinolin-6-yl)-4-(4,4-dimethylpiperidin-1-yl)-2,6-dimethylpyridin-3-yl)acetic acid], the EC50 is, setting by setting: (read-out: Activity) below 0.1 µM; (read-out: EC50 μM) 0.011 µM.
Take `Cc1nc(C)c([C@H](OC(C)(C)C)C(=O)O)c(N2CCC(C)(C)CC2)c1-c1ccc2c(c1)CCN(Cc1cccc(C(F)(F)F)c1F)C2` [Compound 32, (S)-2-(tert-butoxy)-2-(4-(4,4-dimethylpiperidin-1-yl)-5-(2-(2-fluoro-3-(trifluoromethyl)benzyl)-1,2,3,4-tetrahydroisoquinolin-6-yl)-2,6-dimethylpyridin-3-yl)acetic acid]: the EC50 (read-out: Activity) was below 0.1 µM.
On the same count and under the same terms, with `Cc1cccc(C)c1CN1CCc2cc(-c3c(C)nc(C)c([C@H](OC(C)(C)C)C(=O)O)c3N3CCC(C)(C)CC3)ccc2C1` [Compound 33, (S)-2-(tert-butoxy)-2-(5-(2-(2,6-dimethylbenzyl)-1,2,3,4-tetrahydroisoquinolin-6-yl)-4-(4,4-dimethylpiperidin-1-yl)-2,6-dimethylpyridin-3-yl)acetic acid] the figure was below 0.1 µM; with `Cc1nc(C)c([C@H](OC(C)(C)C)C(=O)O)c(N2CCC(C)(C)CC2)c1-c1ccc2c(c1)CCN(Cc1cc(F)c(F)c(F)c1)C2` [Compound 34, (S)-2-(tert-butoxy)-2-(4-(4,4-dimethylpiperidin-1-yl)-2,6-dimethyl-5-(2-(3,4,5-trifluorobenzyl)-1,2,3,4-tetrahydroisoquinolin-6-yl)pyridin-3-yl)acetic acid], below 0.1 µM.
Still for that read-out and setting: with `Cc1nc(C)c([C@H](OC(C)(C)C)C(=O)O)c(N2CCC(C)(C)CC2)c1-c1ccc2c(c1)CCN(Cc1ccc(F)cc1Cl)C2` [Compound 35, (S)-2-(tert-butoxy)-2-(5-(2-(2-chloro-4-fluorobenzyl)-1,2,3,4-tetrahydroisoquinolin-6-yl)-4-(4,4-dimethylpiperidin-1-yl)-2,6-dimethylpyridin-3-yl)acetic acid] the figure was below 0.1 µM.
Consider `Cc1nc(C)c([C@H](OC(C)(C)C)C(=O)O)c(N2CCC(C)(C)CC2)c1-c1ccc2c(c1)CCN(Cc1cccc(C(C)C)c1)C2` [Compound 36, (S)-2-(tert-butoxy)-2-(4-(4,4-dimethylpiperidin-1-yl)-5-(2-(3-isopropylbenzyl)-1,2,3,4-tetrahydroisoquinolin-6-yl)-2,6-dimethylpyridin-3-yl)acetic acid], for which the EC50 (read-out: Activity) was below 0.1 µM.
For `Cc1nc(C)c([C@H](OC(C)(C)C)C(=O)O)c(N2CCC(C)(C)CC2)c1-c1ccc2c(c1)CCN(Cc1ccc(F)c(F)c1)C2` [Compound 37, (S)-2-(tert-butoxy)-2-(5-(2-(3,4-difluorobenzyl)-1,2,3,4-tetrahydroisoquinolin-6-yl)-4-(4,4-dimethylpiperidin-1-yl)-2,6-dimethylpyridin-3-yl)acetic acid], the EC50 (read-out: Activity) is below 0.1 µM.
Take `Cc1nc(C)c([C@H](OC(C)(C)C)C(=O)O)c(N2CCC(C)(C)CC2)c1-c1ccc2c(c1)CCN(Cc1cc(F)ccc1F)C2` [Compound 38, (S)-2-(tert-butoxy)-2-(5-(2-(2,5-difluorobenzyl)-1,2,3,4-tetrahydroisoquinolin-6-yl)-4-(4,4-dimethylpiperidin-1-yl)-2,6-dimethylpyridin-3-yl)acetic acid]: the EC50 was below 0.1 µM (read-out: Activity) and 0.006 µM (read-out: EC50 μM).
Regarding `Cc1nc(C)c([C@H](OC(C)(C)C)C(=O)O)c(N2CCC(C)(C)CC2)c1-c1ccc2c(c1)CCN(Cc1ccc(Cl)cc1F)C2` [Compound 39, (S)-2-(tert-butoxy)-2-(5-(2-(4-chloro-2-fluorobenzyl)-1,2,3,4-tetrahydroisoquinolin-6-yl)-4-(4,4-dimethylpiperidin-1-yl)-2,6-dimethylpyridin-3-yl)acetic acid], the EC50 (read-out: Activity) was below 0.1 µM.
Consider `Cc1nc(C)c([C@H](OC(C)(C)C)C(=O)O)c(N2CCC(C)(C)CC2)c1-c1ccc2c(c1)CCN(Cc1cccc(Cl)c1Cl)C2` [Compound 40, (S)-2-(tert-butoxy)-2-(5-(2-(2,3-dichlorobenzyl)-1,2,3,4-tetrahydroisoquinolin-6-yl)-4-(4,4-dimethylpiperidin-1-yl)-2,6-dimethylpyridin-3-yl)acetic acid], for which the EC50 (read-out: Activity) is below 0.1 µM.
On to `Cc1nc(C)c([C@H](OC(C)(C)C)C(=O)O)c(N2CCC(C)(C)CC2)c1-c1ccc2c(c1)CCN(Cc1ccc(F)c(F)c1F)C2` [Compound 41, (S)-2-(tert-butoxy)-2-(4-(4,4-dimethylpiperidin-1-yl)-2,6-dimethyl-5-(2-(2,3,4-trifluorobenzyl)-1,2,3,4-tetrahydroisoquinolin-6-yl)pyridin-3-yl)acetic acid], for which the EC50 (read-out: Activity) was below 0.1 µM.
